Test results from patent publication US20040106148A1, “Polypeptides” (priority 2000, published 2004).

Experiments:
Assay in all cases: Protein-lipid overlay
Type in all cases: binding
[1] = target: human TAPP1 C-terminal PH domain, mutant R212L (Arg212 to Leu), GST fusion (Homo sapiens, UniProt Q9HB21, R211L); details: FIG. 4B
Procedure: (§1) FIG. 4. Comparison of the phosphoinositide binding properties of the N-terminal and C-terminal PH domains of TAPP1 and TAPP2. The ability of wild type and mutant forms of full length (FL) and isolated N-terminal (NT) and C-terminal (CT) PH domains of TAPP1 and TAPP2 GST-fusion proteins to interact with phosphoinositides were analysed using a protein-lipid overlay. Serial dilutions of the indicated phosphoinositides (100 pmol, 50 pmol, 25 pmol, 12.5 pmol, 6.3 pmol, 3.1 pmol and 1.6 pmol) were spotted onto a nitrocellulose membrane which was then incubated with the indicated purified GST fusion proteins. The membranes were washed and the GST-fusion proteins bound to the membrane by virtue of their interactions with lipid were detected using a GST antibody. A representative experiment of three is shown. The isolated N-terminal PH domain of human TAPP1 comprises residues 1 to 147, the isolated C-terminal PH domain of human TAPP1 comprises residues 95 to 404, the isolated N-terminal PH domain of mouse TAPP2 comprises residues 1 to 131 and the isolated C-terminal PH of mouse TAPP2 comprises residues 174 to 425.
(§2) Protein-Lipid overlay. To assess the phosphoinositide binding properties of each PH domain, a protein-lipid overlay assay was performed using the GST fusion proteins as described previously. Briefly, 1 μl of lipid solution containing 1-100 pmol of phospholipids dissolved in a mixture of choroform:methanol:water (1:2:0.8) was spotted onto Hybond-C extra membrane and allowed to dry at room temperature for 1 h. The membrane was blocked in 3% (by mass) fatty acid-free BSA in TBST (50 mM Tris/HCl pH 7.5, 150 mM NaCl and 0.1% Tween-20 (by vol) for lh. The membrane was then incubated overnight at 4° C. with gentle agitation in the same solution containing 0.2 μg/ml of the indicated GST fusion protein. The membranes were washed 6 times over 30 min in TBST and then incubated for 1 h with 1/1000 dilution of anti-GST monoclonal antibody (Sigma). The membranes were washed as before, then incubated for 1 h with 1/5000 dilution of anti-mouse-HRP conjugate (Pierce). Finally, the membranes were washed 12 times over 1 h in TBST and the GST-fusion protein bound to the membrane by virtue of its interaction with phospholipid was detected by enhanced chemiluminescence.

[2] = target: human TAPP1, full length, mutant R212L (Arg212 to Leu), GST fusion (Homo sapiens, UniProt Q9HB21, R211L); details: FIG. 4B
Sequence of human TAPP1, full length, mutant R212L (Arg212 to Leu), GST fusion (Q9HB21 whole entry R211L, the tested form may be a part): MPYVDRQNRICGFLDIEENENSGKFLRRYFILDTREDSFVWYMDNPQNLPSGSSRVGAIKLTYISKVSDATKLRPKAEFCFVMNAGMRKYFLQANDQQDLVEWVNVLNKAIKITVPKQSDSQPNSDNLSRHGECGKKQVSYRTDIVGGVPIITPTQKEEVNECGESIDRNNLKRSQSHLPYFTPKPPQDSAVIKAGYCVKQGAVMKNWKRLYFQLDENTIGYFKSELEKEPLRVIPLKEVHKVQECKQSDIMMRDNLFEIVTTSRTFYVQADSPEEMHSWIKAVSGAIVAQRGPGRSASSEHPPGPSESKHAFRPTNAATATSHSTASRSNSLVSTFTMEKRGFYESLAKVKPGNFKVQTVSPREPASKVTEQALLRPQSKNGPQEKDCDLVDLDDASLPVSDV
Procedure: as §1, §2

[3] = target: human TAPP1, full length, mutant R28L (Arg28 to Leu), GST fusion (Homo sapiens, UniProt Q9HB21, R28L); details: FIG. 4B
Sequence of human TAPP1, full length, mutant R28L (Arg28 to Leu), GST fusion (Q9HB21 whole entry R28L, the tested form may be a part): as the sequence (Q9HB21 whole entry R211L, the tested form may be a part) above, with R28L, L211R counted along it
Procedure: as §1, §2

[4] = target: human TAPP1, full length, wild type, GST fusion (Homo sapiens, UniProt Q9HB21); details: FIG. 4A and Table 2
Sequence of human TAPP1, full length, wild type, GST fusion (Q9HB21 whole entry, the tested form may be a part): as the sequence (Q9HB21 whole entry R211L, the tested form may be a part) above, with L211R counted along it
Procedure: as §1, §2

[5] = target: mouse TAPP2, full length, wild type, GST fusion (Mus musculus, UniProt Q9ERS5); details: FIG. 4C and Table 2
Sequence of mouse TAPP2, full length, wild type, GST fusion (Q9ERS5 whole entry, the tested form may be a part): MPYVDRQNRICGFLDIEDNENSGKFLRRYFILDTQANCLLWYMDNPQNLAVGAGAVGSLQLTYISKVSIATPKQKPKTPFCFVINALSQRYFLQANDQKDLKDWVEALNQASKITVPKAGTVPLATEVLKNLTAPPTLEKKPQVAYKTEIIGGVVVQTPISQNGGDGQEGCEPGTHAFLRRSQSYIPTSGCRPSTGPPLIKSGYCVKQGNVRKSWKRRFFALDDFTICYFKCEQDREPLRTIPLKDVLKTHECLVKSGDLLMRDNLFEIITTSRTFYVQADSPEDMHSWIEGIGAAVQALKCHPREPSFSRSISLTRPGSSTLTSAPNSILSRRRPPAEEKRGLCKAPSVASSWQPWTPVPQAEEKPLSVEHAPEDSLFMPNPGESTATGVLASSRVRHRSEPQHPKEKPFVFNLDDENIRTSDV
Procedure: as §1, §2

Sequence of human TAPP1 C-terminal PH domain, mutant R212L (Arg212 to Leu), GST fusion (Q9HB21 95-404 R211L): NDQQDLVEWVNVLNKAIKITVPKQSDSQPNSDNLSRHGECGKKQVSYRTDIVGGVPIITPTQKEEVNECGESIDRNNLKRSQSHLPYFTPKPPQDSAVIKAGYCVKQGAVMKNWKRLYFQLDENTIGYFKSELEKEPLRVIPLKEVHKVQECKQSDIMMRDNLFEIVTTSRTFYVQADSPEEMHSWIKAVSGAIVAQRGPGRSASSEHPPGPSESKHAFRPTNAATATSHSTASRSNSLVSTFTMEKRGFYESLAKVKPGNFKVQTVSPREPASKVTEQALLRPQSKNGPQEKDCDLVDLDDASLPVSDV

effect of mutation on interaction [1]: abolished the interaction | effect of mutation on interaction [2]: abolished the interaction | effect of mutation on interaction [3]: did not affect the interaction | phosphoinositide binding [4]: interacted specifically | phosphoinositide binding [5]: interacted specifically
SMILES: CCCCCCCCCCCCCCCC(=O)OC[C@H](COP(=O)(O)O[C@H]1[C@H](O)[C@@H](O)[C@H](OP(=O)(O)O)[C@@H](OP(=O)(O)O)[C@H]1O)OC(=O)CCCCCCCCCCCCCCC [PtdIns(3,4)P2]
